In one data set the test system is Plasmodium falciparum. The data set is described as follows: Antiplasmodial activity against chloroquine-resistant blood stage of Plasmodium falciparum W2 infected in human RBC after 48 hrs by flow cytometric analysis. Type of data set: functional, organism-based. The following applies: W2, 48 h.
Data set [1] can be described thus: Cytotoxicity against human HuH7 cells assessed as cell viability after 48 hrs by Alamar blue assay. Type of data set: cell-based, Huh-7.
Data set [2] has as its system Plasmodium berghei. The data set is described as follows: microbe, parasite or virus in culture. The following applies: Huh-7, Liver.
Description: Antiplasmodial activity against liver sporozoite stage of Plasmodium berghei expressing luciferase and GFP infected in human HuH7 cells assessed as inhibition of parasite development incubated for 1 hr prior to parasite infection measured after 48 hrs by Alamar blue assay
The subject of data set [3] is Plasmodium berghei. The data set is described as follows: Antiplasmodial activity against liver sporozoite stage of Plasmodium berghei ANKA expressing GFP infected in human HuH7 cells assessed as inhibition of parasite development after 24 hrs by qRT-PCR analysis. The format is functional, organism-based. The conditions noted are these: Huh-7, Liver.

SMILES strings stand for the structures. A value given as a limit tells only on which side of the number the result lay.

For `Cc1cc2oc(-c3ccc(OCCCC(F)(F)F)cc3)cc(=O)c2cc1Cl`, the half-maximal inhibitory concentration (IC50) (usually the midpoint of a concentration-inhibition curve) in the data set with Plasmodium falciparum stood at 17.2 µM.
On the same count and under the same terms, for `O=c1cc(-c2ccc(-c3cnc4ccccc4c3)cc2)oc2ccccc12` the value was 5.17 µM.
In the case of `Cc1ccc2c(=O)cc(-c3ccc(Oc4ccc(Cl)cc4)cc3)oc2c1`, the CC50 (commonly the concentration that lowers cell viability or growth by half) at 48 h in data set [1] is greater than 50 µM. Also, the IC50 with Plasmodium falciparum worked out at 19.7 µM; with Plasmodium berghei [2] it was 4.1 µM.
For the compound `O=c1c(-c2ccc(O)cc2)coc2cc(O)cc(O)c12` [GENISTEIN], the IC50 in the data set with Plasmodium berghei [3] worked out at 20 µM.
For the compound `Cc1cc2oc(-c3ccc(Oc4ccc(OC(F)(F)F)cc4)cc3)cc(=O)c2cc1Cl`, the IC50 in the data set with Plasmodium falciparum is greater than 25 µM.
The same measure, in the same setting: for `O=c1c(Br)c(-c2ccc(-c3ccccc3)cc2)oc2cc(CBr)c(Cl)cc12` the value was 5.96 µM; for `O=Cc1ccc(-c2ccc(-c3cc(=O)c4ccccc4o3)cc2)cc1`, greater than 25 µM.
As to `O=c1cc(-c2ccc(Oc3ccc(Cl)cc3)cc2)oc2ccccc12`, the CC50 at 48 h in data set [1] is greater than 180 µM. Further, the figures for the 50% inhibitory concentration (IC50) in the data set on Plasmodium falciparum and with Plasmodium berghei [2] were 21 µM and 6.2 µM, respectively.
`O=c1cc(-c2ccc(Br)cc2)oc2ccccc12` had a half-maximal inhibitory concentration (IC50) in the data set on Plasmodium falciparum greater than 25 µM.
In turn, `O=c1cc(-c2ccc(Oc3ccc(Cl)cc3)cc2)oc2ccc(Cl)cc12` displayed an IC50 with Plasmodium falciparum greater than 25 µM.
`O=c1cc(-c2ccc(Oc3ccc(Cl)cc3)cc2)oc2cc(Cl)ccc12` displayed an IC50 with Plasmodium falciparum of 12.6 µM.
On the same count and under the same terms, under `O=c1cc(-c2ccc(-c3ccccc3)cc2)oc2ccccc12` stands greater than 25 µM; under `Cc1cc2oc(-c3ccc(-c4ccccc4)cc3)c(Br)c(=O)c2cc1Cl`, greater than 25 µM.
`Cc1cc2oc(-c3ccc(Oc4ccc(Cl)cc4)cc3)cc(=O)c2cc1Cl`: in the data set on Plasmodium falciparum, the half-maximal inhibitory concentration (IC50) was found to be 23.2 µM.
As to `Cc1cc2oc(-c3ccc(-c4ccccc4)cc3)cc(=O)c2cc1Cl`, the 50% cytotoxic concentration (CC50) at 48 h in data set [1] was greater than 90 µM. Also, the IC50 is 14 µM in the data set with Plasmodium falciparum and 8.5 µM in the data set on Plasmodium berghei [2].
Regarding `O=c1cc(-c2ccc(-c3ccc(Cl)cc3)cc2)oc2ccccc12`, the IC50 in the data set on Plasmodium falciparum is greater than 10 µM.
In the data set on Plasmodium falciparum, `O=c1cc(-c2ccc(-c3ccc(F)cc3)cc2)oc2ccccc12` gave an IC50 greater than 25 µM.
Take `Nc1ccc(-c2ccc(-c3cc(=O)c4ccccc4o3)cc2)cn1`: the half-maximal cytotoxic concentration (CC50) at 48 h in data set [1] was greater than 15 µM. Moreover, the IC50 in the data set with Plasmodium falciparum was 3.88 µM; in the data set on Plasmodium berghei [2], 1.9 µM.
For `O=c1cc(-c2ccc(Oc3cccc(OC(F)(F)F)c3)cc2)oc2ccccc12`, inhibition with Plasmodium falciparum was half-maximal at 14.9 µM (IC50).
